From ChEMBL document CHEMBL5653615 (J Biol Chem, 2013)

Experiments:
[1] = target: T1, Ephrin type-A receptor 3 (Homo sapiens) (UniProt P29320); test: Inhibition of human EPHA3 at 18.6 nM by HotSpot assay relative to control
T1 sequence (whole entry): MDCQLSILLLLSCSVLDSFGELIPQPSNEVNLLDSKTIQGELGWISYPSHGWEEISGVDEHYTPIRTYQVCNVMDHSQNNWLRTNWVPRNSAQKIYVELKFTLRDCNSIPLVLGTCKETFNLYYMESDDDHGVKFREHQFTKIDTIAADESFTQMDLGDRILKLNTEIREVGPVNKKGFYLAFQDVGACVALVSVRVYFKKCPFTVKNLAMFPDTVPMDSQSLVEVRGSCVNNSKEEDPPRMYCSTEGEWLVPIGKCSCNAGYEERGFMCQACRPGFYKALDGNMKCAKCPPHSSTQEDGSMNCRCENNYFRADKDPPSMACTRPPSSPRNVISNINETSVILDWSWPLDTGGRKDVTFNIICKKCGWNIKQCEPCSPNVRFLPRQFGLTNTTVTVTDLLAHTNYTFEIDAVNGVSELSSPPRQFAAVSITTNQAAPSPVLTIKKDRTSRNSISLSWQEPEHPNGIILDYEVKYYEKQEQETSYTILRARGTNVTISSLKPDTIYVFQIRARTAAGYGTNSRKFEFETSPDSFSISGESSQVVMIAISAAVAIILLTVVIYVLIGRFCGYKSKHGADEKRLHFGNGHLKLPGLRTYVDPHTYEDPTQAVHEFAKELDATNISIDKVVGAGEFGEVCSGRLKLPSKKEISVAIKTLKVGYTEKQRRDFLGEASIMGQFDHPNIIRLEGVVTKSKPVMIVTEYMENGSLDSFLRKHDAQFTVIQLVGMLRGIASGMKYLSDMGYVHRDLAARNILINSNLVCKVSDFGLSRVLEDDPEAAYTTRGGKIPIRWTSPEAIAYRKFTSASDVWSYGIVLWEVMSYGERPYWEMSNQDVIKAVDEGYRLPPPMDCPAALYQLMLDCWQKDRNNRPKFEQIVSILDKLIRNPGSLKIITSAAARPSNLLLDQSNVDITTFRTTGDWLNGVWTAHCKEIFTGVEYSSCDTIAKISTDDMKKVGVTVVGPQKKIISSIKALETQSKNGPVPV

[2] = target: Tyrosine-protein kinase JAK1 (Homo sapiens) (UniProt P23458); test: Inhibition of human JAK1 at 18.6 nM by HotSpot assay relative to control
[3] = target: Platelet-derived growth factor receptor alpha (Homo sapiens) (UniProt P16234); test: Inhibition of human PDGFRa at 18.6 nM by HotSpot assay relative to control
[4] = target: T2, Serine/threonine-protein kinase NLK (Homo sapiens) (UniProt Q9UBE8); test: Inhibition of human NLK at 1.82 nM by HotSpot assay relative to control
T2 sequence (whole entry): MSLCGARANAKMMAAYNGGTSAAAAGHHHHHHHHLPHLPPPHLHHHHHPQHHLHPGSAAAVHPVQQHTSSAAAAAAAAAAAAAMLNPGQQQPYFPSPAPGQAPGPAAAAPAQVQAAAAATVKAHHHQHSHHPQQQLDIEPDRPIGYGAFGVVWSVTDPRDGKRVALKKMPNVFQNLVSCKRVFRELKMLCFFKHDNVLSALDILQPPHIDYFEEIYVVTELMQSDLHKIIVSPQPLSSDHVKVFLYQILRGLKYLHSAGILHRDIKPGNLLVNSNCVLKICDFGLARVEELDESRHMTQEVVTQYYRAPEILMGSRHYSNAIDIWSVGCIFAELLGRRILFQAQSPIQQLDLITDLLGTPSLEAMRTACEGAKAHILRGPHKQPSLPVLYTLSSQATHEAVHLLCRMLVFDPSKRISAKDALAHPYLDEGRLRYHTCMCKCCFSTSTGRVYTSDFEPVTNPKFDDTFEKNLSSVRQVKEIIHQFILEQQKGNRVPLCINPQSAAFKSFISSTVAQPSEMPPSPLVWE

[5] = target: T3, NUAK family SNF1-like kinase 2 (Homo sapiens) (UniProt Q9H093); test: Inhibition of human NUAK2 at 1.82 nM by HotSpot assay relative to control
T3 sequence (whole entry): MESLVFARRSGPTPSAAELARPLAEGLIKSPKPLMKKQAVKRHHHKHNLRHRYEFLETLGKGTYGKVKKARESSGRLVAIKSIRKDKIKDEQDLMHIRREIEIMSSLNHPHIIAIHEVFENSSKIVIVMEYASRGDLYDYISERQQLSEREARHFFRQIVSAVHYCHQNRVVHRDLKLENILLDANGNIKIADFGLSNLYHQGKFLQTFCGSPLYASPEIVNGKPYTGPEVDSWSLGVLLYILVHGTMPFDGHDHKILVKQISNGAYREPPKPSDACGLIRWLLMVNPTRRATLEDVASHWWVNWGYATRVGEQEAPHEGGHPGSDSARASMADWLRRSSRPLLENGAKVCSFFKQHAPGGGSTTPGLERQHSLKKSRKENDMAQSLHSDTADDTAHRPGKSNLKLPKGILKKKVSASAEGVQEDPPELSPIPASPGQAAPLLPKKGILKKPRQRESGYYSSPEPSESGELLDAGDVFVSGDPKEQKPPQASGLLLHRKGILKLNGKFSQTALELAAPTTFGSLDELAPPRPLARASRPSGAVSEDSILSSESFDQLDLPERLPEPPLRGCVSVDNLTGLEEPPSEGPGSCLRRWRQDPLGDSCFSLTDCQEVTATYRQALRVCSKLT

Sequence of Platelet-derived growth factor receptor alpha (Homo sapiens) (P16234 whole entry): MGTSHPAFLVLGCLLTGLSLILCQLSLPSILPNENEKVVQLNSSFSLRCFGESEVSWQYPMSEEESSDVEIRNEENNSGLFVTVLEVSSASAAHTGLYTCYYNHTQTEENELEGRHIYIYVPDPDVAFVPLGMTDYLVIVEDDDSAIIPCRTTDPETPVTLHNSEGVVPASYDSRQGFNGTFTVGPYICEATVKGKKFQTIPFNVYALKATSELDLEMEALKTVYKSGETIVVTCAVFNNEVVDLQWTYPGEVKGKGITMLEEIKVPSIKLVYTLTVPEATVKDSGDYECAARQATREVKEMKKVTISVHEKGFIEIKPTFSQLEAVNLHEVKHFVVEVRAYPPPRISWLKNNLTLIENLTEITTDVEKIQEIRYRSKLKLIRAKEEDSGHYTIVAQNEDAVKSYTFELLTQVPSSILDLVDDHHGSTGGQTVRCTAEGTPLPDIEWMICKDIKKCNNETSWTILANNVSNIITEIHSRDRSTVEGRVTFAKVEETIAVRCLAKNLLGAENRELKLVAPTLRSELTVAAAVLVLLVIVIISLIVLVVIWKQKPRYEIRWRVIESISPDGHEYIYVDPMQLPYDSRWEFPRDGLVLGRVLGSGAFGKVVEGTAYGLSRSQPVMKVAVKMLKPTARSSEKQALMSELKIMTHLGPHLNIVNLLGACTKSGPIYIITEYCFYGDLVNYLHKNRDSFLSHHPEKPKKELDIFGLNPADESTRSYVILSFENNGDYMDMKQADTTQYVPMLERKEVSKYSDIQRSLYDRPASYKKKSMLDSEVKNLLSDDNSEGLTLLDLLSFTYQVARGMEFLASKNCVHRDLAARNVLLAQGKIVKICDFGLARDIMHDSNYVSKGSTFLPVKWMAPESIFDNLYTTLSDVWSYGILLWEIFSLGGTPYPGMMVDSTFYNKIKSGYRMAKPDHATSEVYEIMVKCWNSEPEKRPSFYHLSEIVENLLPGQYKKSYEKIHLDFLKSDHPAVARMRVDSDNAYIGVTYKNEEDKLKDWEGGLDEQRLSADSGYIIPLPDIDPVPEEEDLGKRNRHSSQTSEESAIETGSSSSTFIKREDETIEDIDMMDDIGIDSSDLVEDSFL
Sequence of Tyrosine-protein kinase JAK1 (Homo sapiens) (P23458 whole entry): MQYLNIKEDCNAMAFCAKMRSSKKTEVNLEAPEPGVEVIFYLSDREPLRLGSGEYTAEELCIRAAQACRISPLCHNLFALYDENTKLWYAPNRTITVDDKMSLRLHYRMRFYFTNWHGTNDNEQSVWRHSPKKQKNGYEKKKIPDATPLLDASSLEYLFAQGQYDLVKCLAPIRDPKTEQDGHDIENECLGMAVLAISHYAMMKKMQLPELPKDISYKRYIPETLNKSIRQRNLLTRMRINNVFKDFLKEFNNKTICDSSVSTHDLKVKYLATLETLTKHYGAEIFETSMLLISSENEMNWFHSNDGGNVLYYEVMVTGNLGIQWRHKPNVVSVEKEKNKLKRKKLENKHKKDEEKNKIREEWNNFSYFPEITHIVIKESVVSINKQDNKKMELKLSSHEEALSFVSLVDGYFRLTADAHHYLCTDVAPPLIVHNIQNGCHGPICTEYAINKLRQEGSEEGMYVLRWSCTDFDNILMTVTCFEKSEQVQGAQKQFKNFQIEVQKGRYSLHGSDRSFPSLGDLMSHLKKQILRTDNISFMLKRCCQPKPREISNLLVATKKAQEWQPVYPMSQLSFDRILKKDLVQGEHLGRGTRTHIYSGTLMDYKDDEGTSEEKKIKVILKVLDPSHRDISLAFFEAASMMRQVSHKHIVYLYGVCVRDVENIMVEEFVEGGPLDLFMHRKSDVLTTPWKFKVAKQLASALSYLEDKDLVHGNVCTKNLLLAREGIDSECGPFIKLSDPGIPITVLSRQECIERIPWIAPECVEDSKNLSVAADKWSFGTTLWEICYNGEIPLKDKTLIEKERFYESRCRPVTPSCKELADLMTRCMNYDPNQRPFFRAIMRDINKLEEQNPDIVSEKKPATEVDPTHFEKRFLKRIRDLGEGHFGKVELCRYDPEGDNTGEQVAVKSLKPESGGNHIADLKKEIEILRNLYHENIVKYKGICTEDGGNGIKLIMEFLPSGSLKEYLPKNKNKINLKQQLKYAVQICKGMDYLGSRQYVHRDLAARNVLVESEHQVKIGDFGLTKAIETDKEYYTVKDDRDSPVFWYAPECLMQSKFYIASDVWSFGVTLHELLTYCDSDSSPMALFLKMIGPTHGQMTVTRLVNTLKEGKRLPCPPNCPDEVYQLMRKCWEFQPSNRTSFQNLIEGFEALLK

inhibition [1]	inhibition [2]	inhibition [3]	inhibition [4]	inhibition [5]	Structure (SMILES)
2.95%	-9.75%	2.05%			C[C@]1(O)C[C@@H](c2nc(-c3ccc4ccc(-c5ccccc5)nc4c3)c3c(N)nccn32)C1
			2.48%	8.18%	C[C@@]1(C(=O)Nc2ccc(F)nc2)CCCN1c1nc(Nc2cc(C3CC3)n[nH]2)c2cccn2n1
